Measurements taken from patent US9907848B2, “Methods and compositions for treatment of metabolic disorders” (Beth Israel Deaconess Medical Center, Inc., priority 2010, dated 2018).
Entries after “also recorded” stand apart in the source; their conditions may differ.

How the values were obtained:
[1] = tested on: iNKT cells; test: αGC treatment of normal weight mice on SFD; format: in vivo
Protocol: (§1) The prototypical ligand for iNKT cells is the glycolipid, αGC. We investigated whether αGC treatment could activate the residual iNKT cells in obesity and improve metabolic outcome (FIGS. 16A-16H).
Wt, Jα18 KO and CD1d KO were weighed weekly and food intake was monitored on HFD. Body fat content was measured by an X-ray emitting DEXA scan, performed after mice were sacrificed. Whole abdominal adipose fat pads were weighed after dissecting out the testes and lymph nodes. […] For glucose tolerance tests, fasted (10 h) mice received 1 g glucose per kg body weight intraperitoneally (i.p); for insulin resistance, the homeostatic model assessment of insulin resistance (HOMA-IR) was used (Matthews et al., Diabetologia 28:412-419, 1985) was used: fasting blood glucose×fasting insulin/22.5. Two samples of 5 mm liver were collected and fixed in formalin overnight, prior to paraffin mounting and preparation of ME or Oil Red 0 stained slides for measurement of fatty liver or adipose prior to αGC (or control) treatment. For H&E and Oil Red O staining, biopsies were viewed using the 20× objective. Degree of fatty liver was measured by Oil Red O staining intensity around 5 portal tract areas per slide.
Mice were injected i.p. with 2 μg of αGC or vehicle, and mice were sacrificed after 5 hours or 4 days, at the time of metabolic analysis. […]

[2] = tested on: iNKT cells; test: Effect of αGC on iNKT cells in fat, liver and spleen of obese mice; format: in vivo; settings: after 6 hours
[3] = tested on: iNKT cells; test: αGC treatment of obese wt mice on HFD, metabolic outcome 4 days post-injection; format: in vivo
Protocol: as §1
(§2) Wt, Jα18 KO and CD1d KO were weighed weekly and food intake was monitored on HFD. Body fat content was measured by an X-ray emitting DEXA scan, performed after mice were sacrificed. Whole abdominal adipose fat pads were weighed after dissecting out the testes and lymph nodes. After 6 weeks on HFD, fasting blood glucose (OneTouch Ultra) and insulin concentrations (Crystal Chem ELISA) were measured. For glucose tolerance tests, fasted (10 h) mice received 1 g glucose per kg body weight intraperitoneally (i.p); for insulin resistance, the homeostatic model assessment of insulin resistance (HOMA-IR) was used (Matthews et al., Diabetologia 28:412-419, 1985) was used: fasting blood glucose×fasting insulin/22.5. Two samples of 5 mm liver were collected and fixed in formalin overnight, prior to paraffin mounting and preparation of ME or Oil Red 0 stained slides for measurement of fatty liver or adipose prior to αGC (or control) treatment. For H&E and Oil Red O staining, biopsies were viewed using the 20× objective. Degree of fatty liver was measured by Oil Red O staining intensity around 5 portal tract areas per slide.
Adipocyte size and number were measured by osmium and immunohistochemistry. Two samples of 20-30 mg of adipose tissue per mouse were immediately fixed in osmium tetroxide (3% solution in collidine 0.05 M), minced into 1 mm pieces and incubated in the dark at room temperature for 48 hours. Adipose cell size and number were determined by a Beckman Coulter Multisizer III Counter with a 400 μm aperture. Adipose tissue was also fixed in formalin overnight, prior to paraffin mounting and preparation of H&E slid s. Adipocyte number was counted per field of view, in ten fields per sample and related back to the original weight of each fat pad.
(§3) Mice were injected i.p. with 2 μg of αGC or vehicle, and mice were sacrificed after 5 hours or 4 days, at the time of metabolic analysis. Single cell suspension of splenocytes, LMNC, and adipose tissue SVF were obtained as before, but with the inclusion of Brefeldin A in all media. Single cell suspensions of splenocytes or liver mononuclear cells (LMC) were stained firstly with cell surface labeling anti-CD3 mAb and αGC-loaded CD1d tetramer. Cells were then fixed, permeabilized, and intracellular cytokine stained for IL-4, IL-10 and IFN-γ using Cytofix/cytoperm (BD Biosciences), according to the manufacturer's instructions.

[4] = tested on: iNKT; settings: literature statement; cited from earlier work
[5] = tested on: iNKT; test: In vitro iNKT cytokine production stimulated by αGC-loaded CD1d+ C1R cells; format: cell-based, mice; settings: isolated iNKT stimulated with αGC
Source text: (§4) To verify the cytokine profile, iNKT were isolated (>90% purity) and stimulated in vitro with αGC.

[6] = tested on: iNKT cells; test: Effect of αGC on iNKT cells in fat, liver and spleen of obese mice; format: in vivo
Protocol: Single cell suspensions of splenocytes, liver mononuclear cells (LMNCs), and adipose SVF were blocked with anti-CD16/32 mAb and stained for 30 min at 4° C. in the dark with PBS-57-loaded or empty CD1d tetramer-PE (NIH tetramer facility) and CD3 (1:150 dilution, eBiosciences). Macrophages were labeled with phycoerythrin-conjugated antibody to F4/80 (1 in 100) and CD11c (1 in 200) and CD206 (1 in 200) to differentiate M1 from M2 macrophages in the SVF as previously described.
as §3

[7] = tested on: iNKT cells; test: αGC treatment of obese Jα18 KO mice (no iNKT cells), control; format: in vivo; settings: 4 days post αGC
Protocol: as §1, §2, §3

[8] = tested on: IL-4 and IL-10; test: Neutralizing IL-4 and IL-10 prior to αGC treatment, metabolic outcomes after 4 days; format: in vivo, mice; settings: IL-4 and IL-10 neutralized before αGC injection
Source text: As adipose tissue iNKT cells are skewed towards IL-4 and IL-10 production, we next investigated whether IL-4 and IL-10 were mediators of this protection seen by αGC treatment. We neutralized IL-4 and IL-10 prior to αGC treatment and measured metabolic outcomes after 4 days.

[9] = tested on: iNKT; test: iNKT cytokine production in response to αGC in vivo (wt mice)
Protocol: as §4, §3

CCCCCCCCCCCCCCCCCCCCCCCCCC(=O)NC(COC1OC(CO)C(O)C(O)C1O)C(O)C(O)CCCCCCCCCCCCCC (stereo not drawn) [αGC, α-galactosylceramide]
GTT [1]: did not affect
fasting glucose [1]: did not affect
invariant TCR expression on iNKT cells [2]: down-regulation of the invariant TCR after 6 hours
% body fat (DEXA) ([3]; 4 days post αGC injection): lost a significant amount; also recorded: decreased
adipocyte number ([3]; 4 days post αGC injection): did not affect cell number; also recorded: did not differ
adipocyte size ([3]; 4 days post αGC injection): rapid and dramatic reduction in adipocyte size; also recorded: decreased
circulating leptin ([3]; 4 days post αGC injection): significantly improved; also recorded: decreased
glucose tolerance test (GTT) ([3]; 4 days post αGC injection): improved GTT, returning it to almost normal
insulin resistance / insulin sensitivity ([3]; 4 days post αGC injection): significantly improved insulin resistance; also recorded: increased insulin sensitivity
lean mass (DEXA) ([3]; 4 days post αGC injection): did not differ
serum IL-4 ([3]; 4 days post αGC injection): non-significant increase
serum IL-6 ([3]; 4 days post αGC injection): decreased serum IL-6
serum TNFα ([3]; 4 days post αGC injection): increased serum TNF-a
serum triglycerides (circulating TGL) ([3]; 4 days post αGC injection): significantly improved; also recorded: decreased circulating TGL
fat deposition in the liver (Oil Red O) ([3]; 4 days post αGC injection, vs PBS): fat droplets were smaller and less frequent
fasting blood glucose ([3]; 4 days post αGC injection, vs PBS control): marked reduction of fasting blood glucose
overall weight ([3]; one i.p. injection of αGC, continued HFD for 4 days, vs PBS/vehicle): lost a significant amount of overall weight
activation of iNKT [4]: activate iNKT
IL-10 production by adipose iNKT in vitro ([5]; vs liver or spleen): significantly more IL-10 per cell
IFNγ production by adipose iNKT in vitro ([5]; vs splenic or hepatic iNKT): low levels of IFNγ; also recorded: significantly less IFNγ
IFNγ production by adipose tissue iNKT cells ([6]; 4-5 hours, vs spleen and liver): little IFNγ
IL-4 and IL-10 production by adipose tissue iNKT cells ([6]; 4-5 hours, vs spleen and liver): more IL-4 and IL-10
expansion of iNKT cells in fat (adipose tissue) ([6]; 4 days post-injection): expansion was greater in fat; also recorded: dramatic expansion
cytokine production by adipose tissue iNKT cells ([6]; day 4 post-injection): still producing cytokines at day 4; also recorded: produced IL-4, IL-10, and IFN-γ at day 4; also recorded: remained actively producing cytokines
expansion of iNKT cells in spleen and liver ([6]; day 4 post-injection): expansion of iNKT cells by day 4
cytokine production by liver and spleen iNKT cells ([6]; within 4-5 hours): produced both IFNγ and IL-4
GTT [7]: not seen; also recorded: did not affect
fasting glucose [7]: improvement in fasting glucose was not seen; also recorded: did not affect
weight loss [7]: weight loss was not seen
GTT [8]: prevented improvement
fasting glucose [8]: prevented improvement
IL-4 production by adipose iNKT in vivo ([9]; following injection of αGC): slightly less IL-4
IL-10 production by adipose iNKT in vivo ([9]; following injection of αGC, vs liver and spleen): significantly more IL-10
IFNγ production by adipose iNKT in vivo ([9]; following injection of αGC, vs liver or spleen): did not produce IFNγ
IFNγ production by spleen and liver iNKT in vivo ([9]; response to αGC): copious IFNγ
IL-4 production by spleen and liver iNKT in vivo ([9]; response to αGC): less IL-4
IL-10 production by spleen and liver iNKT in vivo ([9]; response to αGC): very low levels of IL-10
